Results on 26 compounds are retold here after patent US5968926A, “Antipsychotic method” (Novo Nordisk A/S, priority 1995, dated 1999).

Where a name gives a salt, the structure may show the parent alone.

One series relates to conditioned avoidance responding. Put plainly: Conditioned avoidance behavior in rats. To be noted: 3.0 mg/kg s.c. 30 min before session, 50 trials. The series is classed as in vivo, rat. From the text:
In a conditioned avoidance test, animals learn to respond during a conditioned stimulus in order to avoid mild shock presentation. A response during the conditioned stimulus is termed an avoidance respone, a response during shock is termed an escape response; a response failure is when the animal fails to respond during either the conditioned stimlus or the shock presentation and is indicative of motor impairment. […] Antipsychotic drugs decrease the percentage of avoidance responses without interfering with the ability of the animal to respond since the animals do emit escape responses. The percentage of response failures is considered a measure of motor impairment.
Rats were required to press a response lever in an experimental chamber in order to avoid or escape foot-shock. Each experimental session consisted of 50 trials. During each trial, the chamber was illuminated and a tone presented for a maximum of 10 sec. A response during the tone immediately terminated the tone and the houselight, ending the trial. In the absence of a response during the tone alone, tone+foot-shock (2.0 mA) was presented for a maximum of 10 sec. A response during shock presentation immediately terminated the shock, the tone and the houselight, ending the trial.
For drug screening, a dose of 3.0 mg/kg was administered s.c. 30 min before the start of the experimental session.
`CCCOc1nsnc1[C@H]1CN2CCC[C@H]1C2` (relative stereo) [Compound 119, Exo-6-(3-propoxy-1,2,5-thiadiazol-4-yl)-1-azabicyclo[3.2.1]octane oxalate]: the “Conditioned Avoidance % Avoidance Responses” value is given as 29%.
On to `CCCCSc1nsnc1[C@H]1CN2CCC[C@H]1C2` (relative stereo) [Compound 30, Exo-6-(3-butylthio-1,2,5-thiadiazol-4-yl)-1-azabicyclo[3.2.1]octane oxalate], for which the “Conditioned Avoidance % Avoidance Responses” value is recorded as 32%.
Turning to `N#Cc1ccc(CSc2nsnc2[C@H]2CN3CCC[C@H]2C3)cc1` (relative stereo) [Compound 82, Exo-6-(3-(4-cyanobenzylthio)-1,2,5-thiadiazol-4-yl)-1-azabicyclo[3.2.1]octane oxalate], the “Conditioned Avoidance % Avoidance Responses” value amounted to 24%.
Still for that read-out and setting: to `CSc1nsnc1[C@H]1CN2CCC[C@H]1C2` (relative stereo) [Compound 74, Exo-6-(3-methylthio-1,2,5-thiadiazol-4-yl)-1-azabicyclo[3.2.1]octane oxalate] belongs 22%; to `CCCCCCOc1nsnc1C1CN2CCC1CC2.O=C(O)/C=C/C(=O)O` (centres unmarked) [Compound 11, 3-(3-Hexyloxy-1,2,5-thiadiazol-4-yl)-1-azabicyclo[2.2.2]octane fumarate], 11%.
`O=C(O)/C=C/C(=O)O.c1ccc(OCCSc2nsnc2C2CN3CCC2CC3)cc1` (centres unmarked) [Compound 102, 3-(3-(2-Phenoxyethylthio)-1,2,5-thiadiazol-4-yl)-1-azabicyclo[2.2.2) octane fumarate]: the “Conditioned Avoidance % Avoidance Responses” value is 3%.
On to `N#CCSc1nsnc1C1CN2CCC1CC2.O=C(O)C(=O)O` (centres unmarked) [Compound 103, 3-(3-Cyanomethylthio-1,2,5-thiadiazol-4-yl)-1-azabicyclo[2.2.2]octane oxalate], for which the “Conditioned Avoidance % Avoidance Responses” value is listed as 51%.
Same read-out and setting: to `Cn1nnnc1SCCCCSc1nsnc1C1CN2CCC1CC2` (centres unmarked) [Compound 106, oxalate] belongs 55%.
The same measure, in the same setting: to `CCSc1nsnc1C1CN2CCC1CC2.O=C(O)C(=O)O` (centres unmarked) [Compound 52, 3-(3-Ethylthio-1,2,5-thiadiazol-4-yl)-1-azabicyclo[2.2.2]octane oxalate] belongs 63%.
Same read-out and setting: as for `CCOc1nsnc1[C@H]1CN2CCC[C@H]1C2` (relative stereo) [Compound 19, Exo-6-(3-ethoxy-1,2,5-thiadiazol-4-yl)-1-azabicyclo[3.2.1]octane oxalate], the figure is 73%.
`CCOc1nsnc1C1CN2CCC1CC2.O=C(O)/C=C/C(=O)O` (centres unmarked) [Compound 9, 3-(3-Ethoxy-1,2,5-thiadiazol-4-yl)-1-azabicyclo[2.2.2]octane fumarate]: the “Conditioned Avoidance % Avoidance Responses” value came out at 65%.
On the same count and under the same terms, to `CCCSc1nsnc1C1CN2CCC1CC2.O=C(O)C(=O)O` (centres unmarked) [Compound 53, 3-(3-Propylthio-1,2,5-thiadiazol-4-yl)-1-azabicyclo[2.2.2]octane oxalate] belongs 41%; to `CCCCSc1nsnc1C1CN2CCC1CC2.O=C(O)/C=C/C(=O)O` (centres unmarked) [Compound 13, 3-(3-Butylthio-1,2,5-thiadiazol-4-yl)-1-azabicyclo[2.2.2]octane fumarate], 18%.
Same read-out and setting: as for `CCCCSc1nsnc1C1CN2CCC1CC2.O=C(O)C(O)C(O)C(=O)O` (single isomer, unassigned) [Compound 56, (+) 3-(3-Butylthio-1,2,5-thiadiazol-4-yl)-1-azabicyclo (2.2.2]octane (-) D-tartrate], the figure is 6%; as for `CCSc1nsnc1[C@H]1CN2CCC[C@H]1C2` (relative stereo) [Compound 32, Exo-6-(3-ethylthio-1,2,5-thiadiazol-4-yl)-1-azabicyclo[3.2.1]octane oxalate], 46%.
The same measure, in the same setting: as for `CCCCOc1nsnc1[C@H]1CN2CCC[C@H]1C2` (relative stereo) [Compound 120, Exo-6-(3-butoxy-1,2,5-thiadiazol-4-yl)-1-azabicyclo[3.2.1]octane oxalate], the figure is 27%.
`O=C(O)/C=C/C(=O)O.c1csc(CCCSc2nsnc2C2CN3CCC2CC3)c1` (centres unmarked) [Compound 104, 3-(3-(3-(2-Thienyl)propylthio)-1,2,5-thiadiazol-4-yl)-1-azabicyclo[2.2.2]octane fumarate]: the “Conditioned Avoidance % Avoidance Responses” value was found to be 24%.
For the compound `CCCSc1nsnc1[C@H]1CN2CCC[C@H]1C2` (relative stereo) [Compound 58, Exo-6-(3-propylthio-1,2,5-thiadiazol-4-yl)-1-azabicyclo[3.2.1]octane oxalate], the “Conditioned Avoidance % Avoidance Responses” value worked out at 41%.
As for `CCCCOc1nsnc1C1CN2CCC1CC2.O=C(O)C(=O)O` (centres unmarked) [Compound 46, 3-(3-Butoxy-1,2,5-thiadiazol-4-yl)-1-azabicyclo[2.2.2]octane oxalate], the “Conditioned Avoidance % Avoidance Responses” value is 30%.
The same measure, in the same setting: to `CSc1nsnc1C1CN2CCC1CC2.O=C(O)C(=O)O` (centres unmarked) [Compound 131, 3-(3-Methylthio-1,2,5-thiadiazol-4-yl)-1-azabicyclo[2.2.2]octane oxalate] belongs 53%; to `Cc1nnc(SCCCCSc2nsnc2C2CN3CCC2CC3)s1` (centres unmarked) [Compound 107, oxalate], 52%.

The series is the same for the next values; noted with them: 3.0 mg/kg s.c. 30 min before session, 50 trials, 3 mg/kg.
For `CCCSc1nsnc1C1CN2CCCC1C2` (single isomer, unassigned; (-)) [Compound 114, (-)-Exo-6-(3-propylthio-1,2,5-thiadiazol-4-yl)-1-azabicyclo[3.2.1]octane (-) D-tartrate], the “Conditioned Avoidance % Avoidance Responses” value is 39%.
`CCCSc1nsnc1C1CN2CCCC1C2` (single isomer, unassigned; (+)) [Compound 113, (+)-Exo-6-(3-propylthio-1,2,5-thiadiazol-4-yl)-1-azabicyclo[3.2.1]octane (+) L-tartrate]: the “Conditioned Avoidance % Avoidance Responses” value is recorded as 19%.
Still for that read-out and setting: as for `CCCCSc1nsnc1C1CN2CCCC1C2` (single isomer, unassigned) [Compound 111, (-)-Exo-6-(3-butylthio-1,2,5-thiadiazol-4-yl)-1-azabicyclo[3.2.1]octane (+) L-tartrate], the figure is 8%; as for `CCCCSc1nsnc1C1CN2CCCC1C2` (single isomer, unassigned) [Compound 112, (+)-Exo-6-(3-butylthio-1,2,5-thiadiazol-4-yl)-1-azabicyclo[3.2.1]octane (-) D-tartrate], 2%.

Tested on in a further series: not given
Assay: not given
Conditions: blood samples of treated patients, 17 patients, trial terminated; cited from earlier work.
Take `Cc1cc2c(s1)Nc1ccc(F)cc1N=C2N1CCN(C)CC1` [flumezapine, 7-fluoro-2-methyl-10-(4-methyl-1-piperazinyl)-4H-thieno[2,3-b][1,5]-benzodiazepine]: the “enzyme levels: creatinine phosphokinase (CPK), SGOT, SGPT” value was “in substantial excess of normal values”.
